Where a name gives a salt, the structure may show the parent alone. Read-outs that look alike come from different tables or passages of the source.
Columns and labels:
h5-HT2C receptors = biological target: T1, h5-HT2C receptors (Homo sapiens, UniProt P28335); assay: Functional activity, FLIPR calcium assay, CHO cells expressing h5-HT2C; format: cell-based; details: for h5-HT2C Relative Efficacy: maximum fluorescent signal relative to 10 μM 5-HT (defined as 100%)
T1 construct: expressed in transfected cells; host or cells: CHO cells
T1 sequence (P28335 33-458): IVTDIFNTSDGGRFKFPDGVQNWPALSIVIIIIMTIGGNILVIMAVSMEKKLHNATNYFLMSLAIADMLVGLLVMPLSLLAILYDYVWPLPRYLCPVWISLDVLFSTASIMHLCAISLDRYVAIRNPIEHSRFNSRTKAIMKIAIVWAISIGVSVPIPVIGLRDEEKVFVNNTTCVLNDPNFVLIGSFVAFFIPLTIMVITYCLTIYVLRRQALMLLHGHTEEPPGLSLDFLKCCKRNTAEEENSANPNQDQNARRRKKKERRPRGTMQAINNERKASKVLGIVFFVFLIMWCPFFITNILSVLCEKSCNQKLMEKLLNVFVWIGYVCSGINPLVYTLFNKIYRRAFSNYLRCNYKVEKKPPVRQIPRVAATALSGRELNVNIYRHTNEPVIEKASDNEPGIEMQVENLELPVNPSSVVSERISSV
Description: (§1) The functional activity of compounds of formula (I) was assayed using a Fluorimetric Imaging Plate reader (FLIPR):
(§2) CHO cells expressing either the h5-HT2C or h5-HT2A receptors were counted and plated into standard 96 well microtitre plates before the day of testing to give a confluent monolayer. The following day the cells were dye-loaded with the calcium sensitive dye Fluo 3-AM by incubation with serum free culture maintenance media containing pluronic acid and Fluo 3-AM dissolved in DMSO at 37° C. in a CO2 incubator at 95% humidity for approximately 90 minutes. Unincorporated dye was removed by washing with Hanks balanced salt solution containing 20 mM HEPES and 2.5 mM probenecid (the assay buffer) using an automated cell washer to leave a total volume of 100 μl/well.
(§3) The drug (dissolved in 50 μL of assay buffer) was added at a rate of 70 μL/sec to each well of the FLIPR 96 well plate during fluorescence measurements. The measurements are taken at 1 sec intervals and the maximum fluorescent signal was measured (approx 10-15 secs after drug addition) and compared with the response produced by 10 μM 5-HT (defined as 100%) to which it is expressed as a percentage response (relative efficacy).Dose response curves were constructed using Graphpad Prism (Graph Software Inc.).

human 5-HT2B receptors = biological target: T2, human 5-HT2B receptors (Homo sapiens, UniProt P41595); assay: Radioligand binding to 5-HT2B receptor ([3H]-5-HT, CHO cell line)
T2 construct: expressed in transfected cells; host or cells: CHO cell line
T2 sequence (P41595 whole entry): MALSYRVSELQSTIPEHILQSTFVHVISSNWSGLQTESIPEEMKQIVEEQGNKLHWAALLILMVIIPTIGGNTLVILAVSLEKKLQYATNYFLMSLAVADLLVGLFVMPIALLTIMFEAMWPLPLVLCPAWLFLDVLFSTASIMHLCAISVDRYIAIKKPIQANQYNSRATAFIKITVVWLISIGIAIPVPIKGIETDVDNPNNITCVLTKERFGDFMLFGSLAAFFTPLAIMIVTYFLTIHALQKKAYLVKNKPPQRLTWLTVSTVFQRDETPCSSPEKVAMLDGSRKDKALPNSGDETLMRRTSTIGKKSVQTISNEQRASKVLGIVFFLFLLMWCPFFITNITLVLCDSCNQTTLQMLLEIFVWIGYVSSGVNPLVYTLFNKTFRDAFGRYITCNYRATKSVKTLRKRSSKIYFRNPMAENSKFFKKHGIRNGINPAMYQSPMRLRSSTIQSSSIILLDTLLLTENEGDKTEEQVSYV
Description: (§4) 1. Binding to Serotonin Receptors
(§5) The binding of compounds of formula (I) to serotonin receptors was determined in vitro by standard methods. The preparations were investigated in accordance with the assays given hereinafter.
Method (b): For the binding to the 5-HT2B receptor the 5-HT2B receptors were radiolabelled with [^3H]-5-HT. The affinity of the compounds for human 5-HT2B receptors in a CHO cell line was determined according to the procedure of K. Schmuck, C. Ullmer, P. Engels and H. Lubbert, FEBS Lett., 1994, 342, 85-90.

5-HT2C receptor = biological target: T3, 5-HT2C receptor (Homo sapiens, UniProt P28335); assay: Radioligand binding to 5-HT2C receptor ([3H]-5-HT, CHO cell line); details: read-out: Ki (2C)
T3 construct: expressed in transfected cells; host or cells: CHO cell line
T3 sequence (P28335 33-458): T1 sequence (P28335 33-458)
Description: as §4, §5
Method (a): For the binding to the 5-HT2C receptor the 5-HT2C receptors were radiolabelled with [^3H]-5-HT. The affinity of the compounds for 5-HT2C receptors in a CHO cell line was determined according to the procedure of D. Hoyer, G. Engel and H. O. Kalkman, European J. Pharmacol., 1985, 118, 13-23.

h5-HT2A receptors = biological target: T4, h5-HT2A receptors (Homo sapiens, UniProt P28223); assay: Functional activity, FLIPR calcium assay, CHO cells expressing h5-HT2A; format: cell-based; details: for h5-HT2A Relative Efficacy: maximum fluorescent signal relative to 10 μM 5-HT (defined as 100%)
T4 construct: expressed in transfected cells; host or cells: CHO cells
T4 sequence (P28223 whole entry): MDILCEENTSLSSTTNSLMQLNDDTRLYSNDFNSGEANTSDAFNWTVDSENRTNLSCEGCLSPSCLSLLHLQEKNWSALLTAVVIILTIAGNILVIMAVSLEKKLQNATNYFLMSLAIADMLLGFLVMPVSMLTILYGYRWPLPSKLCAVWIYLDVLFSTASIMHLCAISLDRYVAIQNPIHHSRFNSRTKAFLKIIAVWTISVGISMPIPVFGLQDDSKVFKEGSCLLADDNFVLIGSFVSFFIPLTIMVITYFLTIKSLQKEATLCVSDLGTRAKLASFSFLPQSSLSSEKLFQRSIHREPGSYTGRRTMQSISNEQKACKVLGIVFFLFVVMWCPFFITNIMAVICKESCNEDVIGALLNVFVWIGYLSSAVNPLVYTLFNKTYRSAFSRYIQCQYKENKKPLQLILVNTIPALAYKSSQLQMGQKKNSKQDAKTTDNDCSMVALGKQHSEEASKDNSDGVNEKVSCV
Description: as §1, §2, §3

5-HT2A receptor = biological target: T5, 5-HT2A receptor (Homo sapiens, UniProt P28223); assay: Radioligand binding to 5-HT2A receptor ([125I]-DOI, CHO cell line); details: read-out: Ki (2A)
T5 construct: expressed in transfected cells; host or cells: CHO cell line
T5 sequence (P28223 whole entry): as above
Description: as §4, §5
Method (c): For the binding to the 5-HT2A receptor the 5-HT2A receptors were radiolabelled with [^125I]-DOI. The affinity of the compounds for 5-HT2A receptors in a CHO cell line was determined according to the procedure of D. J. McKenna and S. J. Peroutka, J. Neurosci., 1989, 9/10, 3482-90.

[1] = FLIPR, Fluo 3-AM, CHO cells, read-out: h5-HT2C EC50
[2] = [3H]-5-HT, human receptor, CHO cell line, read-out: Ki (2B)

With `C[C@H](N)CN1c2cc(Cl)ccc2[C@@H]2CCC[C@@H]21` [Example 2, (2′S, 3aS, 8b5)-[1-[4-(6-Chloro-1,2,3,3a,4,8b-hexahydrocyclopent[b]indolyl)]-2-propylamine hydrochloride] the EC50 (h5-HT2C receptors; [1]) was 0.585 µM, the Ki (human 5-HT2B receptors; [2]) was 0.302 µM and the Ki (5-HT2C receptor) was 0.133 µM. For the same compound, the “h5-HT2A Relative Efficacy” value (h5-HT2A receptors) was 7% and the Ki (5-HT2A receptor) was 0.726 µM.

With `COc1c(F)ccc2c1C1CCCC1N2CC(C)N` (mixture of isomers) [Example 20, (2′S)-[1-[4-(7-Fluoro-1,2,3,3a,4,8b-hexahydro-8-methoxycyclopent[b]indolyl)]-2-propylamine fumarate] the EC50 (h5-HT2C receptors) was 0.464 µM, the “h5-HT2C Relative Efficacy” value (h5-HT2C receptors) was 62% and the Ki (human 5-HT2B receptors) was 0.367 µM. The Ki (5-HT2C receptor) was 0.318 µM, the EC50 (h5-HT2A receptors; FLIPR, Fluo 3-AM, CHO cells) was 5.49 µM and the “h5-HT2A Relative Efficacy” value (h5-HT2A receptors) was 17%. For the same compound, the Ki (5-HT2A receptor) was 0.481 µM.

In the case of `COc1cc2c(cc1F)C1CCCC1N2C[C@H](C)N` (single isomer, unassigned; isomer i) [Example 19, (2′S)-1-[4-(7-Fluoro-1,2,3,3a,4,8b-hexahydro-6-methoxycyclopent[b]indolyl)]-2-propylamine isomer I 0.7 fumarate], the EC50 (h5-HT2C receptors) is reported as 0.391 µM, the “h5-HT2C Relative Efficacy” value (h5-HT2C receptors) is reported as 84% and the Ki (human 5-HT2B receptors) is reported as 0.513 µM. For the same compound, the Ki (5-HT2C receptor) was 0.088 µM, the “h5-HT2A Relative Efficacy” value (h5-HT2A receptors) was 0% and the Ki (5-HT2A receptor) was 1.16 µM.

With `C[C@H](N)CN1c2cc(Cl)c(F)cc2C2CCCC21` (single isomer, unassigned; isomer i) [Example 10, (2′S)-1-[4-(6-Chloro-7-fluoro-1,2,3,3a,4,8b-hexahydrocyclopent[b]indolyl)]-2-propylamine isomer I fumarate] the EC50 (h5-HT2C receptors; [1]) was 0.737 µM, the Ki (human 5-HT2B receptors; [2]) was 0.109 µM and the Ki (5-HT2C receptor) was 0.164 µM. For the same compound, the “h5-HT2A Relative Efficacy” value (h5-HT2A receptors) was 20% and the Ki (5-HT2A receptor) was 0.983 µM.

In the case of `NCCN1c2ccccc2[C@H]2CCC[C@H]21.O=C(O)/C=C/C(=O)O` (racemic), the melting point is reported as 172 °C (dec.).

Reference: patent US6479534B1, “Indoline derivatives and method of treating obesity” (priority 2000, dated 2002)
